Assay results reported in patent publication US20150252047A1, “SUBSTITUTED INDAZOL-PYRROLOPYRIMIDINES USEFUL IN THE TREATMENT OF HYPERPROLIFERATIVE DISEASES” (BAYER PHARMA AKTIENGESELLSCHAFT, priority 2012, published 2015).
pIC50: −log10 of the molar value.

What follows are compounds tested against T1, human full-length MKNK1 (Homo sapiens, UniProt Q9BUB5, T385D) (assay: MKNK1 kinase high ATP assay (TR-FRET)). Settings: high ATP (2 mM final), 15 min preincubation with enzyme, 30 min reaction at 22° C.
T1 construct: GST (N); purchased Carna Biosciences 02-145; host or cells: insect cells (baculovirus expression system)
T1 sequence (Q9BUB5 1-424 isoform Q9BUB5-2 T344D): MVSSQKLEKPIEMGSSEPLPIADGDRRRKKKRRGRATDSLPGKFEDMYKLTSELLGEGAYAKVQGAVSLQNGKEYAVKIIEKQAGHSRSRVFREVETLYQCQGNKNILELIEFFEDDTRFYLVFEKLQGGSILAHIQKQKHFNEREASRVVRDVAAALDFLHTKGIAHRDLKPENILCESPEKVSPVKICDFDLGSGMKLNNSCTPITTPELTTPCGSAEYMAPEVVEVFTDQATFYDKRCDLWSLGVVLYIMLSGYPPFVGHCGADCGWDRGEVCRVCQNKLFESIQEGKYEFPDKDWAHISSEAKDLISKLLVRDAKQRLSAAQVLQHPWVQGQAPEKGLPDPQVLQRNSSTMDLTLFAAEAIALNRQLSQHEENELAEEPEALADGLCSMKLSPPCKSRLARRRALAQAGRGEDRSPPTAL
Assay type: biochemical
Procedure: MKNK1-inhibitory activity at high ATP of compounds of the present invention after their preincubation with MKNK1 was quantified employing the TR-FRET-based MKNK1 high ATP assay as described in the following paragraphs.
A recombinant fusion protein of Glutathione-S-Transferase (GST, N-terminally) and human full-length MKNK1 (amino acids 1-424 and T344D of accession number BAA 19885.1), expressed in insect cells using baculovirus expression system and purified via glutathione sepharose affinity chromatography, was purchased from Carna Biosciences (product no 02-145) and used as enzyme. As substrate for the kinase reaction the biotinylated peptide biotin-Ahx-IKKRKLTRRKSLKG (C-terminus in amide form) was used, which can be purchased e.g. from the company Biosyntan (Berlin-Buch, Germany).
For the assay 50 nL of a 100 fold concentrated solution of the test compound in DMSO was pipetted into a black low volume 384 well microtiter plate (Greiner Bio-One, Frickenhausen, Germany), 2 μL of a solution of MKNK1 in aqueous assay buffer [50 mM HEPES pH 7.5, 5 mM MgCl2, 1.0 mM dithiothreitol, 0.005% (v/v) Nonidet-P40 (Sigma)] was added and the mixture was incubated for 15 min at 22° C. to allow pre-binding of the test compounds to the enzyme before the start of the kinase reaction. Then the kinase reaction was started by the addition of 3 μL of a solution of adenosine-tri-phosphate (ATP, 3.3 mM=>final conc. in the 5 μL assay volume is 2 mM) and substrate (0.1 μM=>final conc. in the 5 μL assay volume is 0.06 μM) in assay buffer and the resulting mixture was incubated for a reaction time of 30 min at 22° C. The concentration of MKNK1 was adjusted depending of the activity of the enzyme lot and was chosen appropriate to have the assay in the linear range, typical concentrations were in the range of 0.003 μg/mL. The reaction was stopped by the addition of 5 μL of a solution of TR-FRET detection reagents (5 nM streptavidine-XL665 [Cisbio Bioassays, Codolet, France] and 1 nM anti-ribosomal protein S6 (pSer236)-antibody from Invitrogen [#44921G] and 1 nM LANCE EU-W1024 Labeled ProteinG [Perkin-Elmer, product no. AD0071]) in an aqueous EDTA-solution (100 mM EDTA, 0.1% (w/v) bovine serum albumin in 50 mM HEPES pH 7.5).
The resulting mixture was incubated for 1 h at 22° C. to allow the formation of complex between the phosphorylated biotinylated peptide and the detection reagents. Subsequently the amount of phosphorylated substrate was evaluated by measurement of the resonance energy transfer from the Eu-chelate to the streptavidine-XL. Therefore, the fluorescence emissions at 620 nm and 665 nm after excitation at 350 nm were measured in a TR-FRET reader, e.g. a Rubystar (BMG Labtechnologies, Offenburg, Germany) or a Viewlux (Perkin-Elmer). The ratio of the emissions at 665 nm and at […] was taken as the measure for the amount of phosphorylated substrate. The data were normalised (enzyme reaction without inhibitor=0% inhibition, all other assay components but no enzyme=100% inhibition).

`COc1cc2[nH]ncc2cc1Nc1ncnc2[nH]ccc12` [Example 2, N-(6-methoxy-1H-indazol-5-yl)-7H-pyrrolo[2,3-d]pyrimidin-4-amine] and `COc1cc2[nH]ncc2cc1Nc1ncnc2[nH]c(C)cc12` [Example 37, N-(6-Methoxy-1H-indazol-5-yl)-6-methyl-7H-pyrrolo[2,3-d]pyrimidin-4-amine] are within 0.2 log units of each other in pIC50: 7.77 for the first, 7.64 for the second.

Going from `Fc1cc2[nH]ncc2cc1Nc1ncnc2[nH]cc(Br)c12` [Example 15, 5-Bromo-N-(6-fluoro-1H-indazol-5-yl)-7H-pyrrolo[2,3-d]pyrimidin-4-amine] to `COc1cc2[nH]ncc2cc1Nc1ncnc2[nH]cc(Br)c12` [Example 19, 5-Bromo-N-(6-methoxy-1H-indazol-5-yl)-7H-pyrrolo[2,3-d]pyrimidin-4-amine], the pIC50 rises from 7.92 to 9.00 (1.08 log units). The second is the more potent here.

Compared with `O=C(O)c1c[nH]c2ncnc(Nc3cc4cn[nH]c4cc3F)c12` [Example 10, 4-[(6-Fluoro-1H-indazol-5-yl)amino]-7H-pyrrolo[2,3-d]pyrimidine-5-carboxylic acid], `CN(C)C(=O)c1c[nH]c2ncnc(Nc3cc4cn[nH]c4cc3F)c12` [Example 16, 4-[(6-Fluoro-1H-indazol-5-yl)amino]-N, N-dimethyl-7H-pyrrolo[2,3-d]pyrimidine-5-carboxamide] is 0.34 log units lower in pIC50: 7.85 for the first, 7.51 for the second. The first is the more potent here.

`CC(C)Oc1cc2[nH]ncc2cc1Nc1ncnc2[nH]cc(C(=O)N3CCN(C)CC3)c12` [Example 29, (4-Methylpiperazin-1-yl)(4-{[6-(propan-2-yloxy)-1H-indazol-5-yl]amino}-7H-pyrrolo[2,3-d]pyrimidin-5-yl)methanone] and `COc1cc2[nH]ncc2cc1Nc1ncnc2[nH]cc(C(=O)N3CCN(C)CC3)c12` [Example 5, {4-[(6-methoxy-1H-indazol-5-yl)amino]-7H-pyrrolo[2,3-d]pyrimidin-5-yl}(4-methylpiperazin-1-yl)methanone] are within 0.2 log units of each other in pIC50: 6.93 for the first, 6.96 for the second.

Compared with `CC(C)Oc1cc2[nH]ncc2cc1Nc1ncnc2[nH]c(S(C)(=O)=O)cc12` [Example 54, 6-(Methylsulfonyl)-N-[6-(propan-2-yloxy)-1H-indazol-5-yl]-7H-pyrrolo[2,3-d]pyrimidin-4-amine], `Cc1ccc(S(=O)(=O)c2cc3c(Nc4cc5cn[nH]c5cc4OC(C)C)ncnc3[nH]2)cc1` [Example 53, 6-[(4-Methylphenyl)sulfonyl]-N-[6-(propan-2-yloxy)-1H-indazol-5-yl]-7H-pyrrolo[2,3-d]pyrimidin-4-amine] is 1.27 log units higher in pIC50: 7.43 for the first, 8.70 for the second. The second is the more potent here.

First: COc1cc2[nH]ncc2cc1Nc1ncnc2[nH]c(CC(C)C)c(C(C)C)c12 [Example 56, N-(6-Methoxy-1H-indazol-5-yl)-6-(2-methylpropyl)-5-(propan-2-yl)-7H-pyrrolo[2,3-d]pyrimidin-4-amine]
Second: CCCc1[nH]c2ncnc(Nc3cc4cn[nH]c4cc3OC)c2c1CC [Example 46, 5-Ethyl-N-(6-methoxy-1H-indazol-5-yl)-6-propyl-7H-pyrrolo[2,3-d]pyrimidin-4-amine]
The pIC50 of the first is 0.30 log units higher: 9.00 for the first, 8.70 for the second. The first is the more potent here.

Going from `CCOC(=O)c1[nH]c2ncnc(Nc3cc4cn[nH]c4cc3OC(C)C)c2c1Br` [Example 63, Ethyl 5-bromo-4-{[6-(propan-2-yloxy)-1H-indazol-5-yl]amino}-7H-pyrrolo[2,3-d]pyrimidine-6-carboxylate] to `CC(C)Oc1cc2[nH]ncc2cc1Nc1ncnc2[nH]cc(C(=O)O)c12` [Example 28, 4-{[6-(Propan-2-yloxy)-1H-indazol-5-yl]amino}-7H-pyrrolo[2,3-d]pyrimidine-5-carboxylic acid], the pIC50 falls from 9.00 to 6.74 (2.26 log units). The first is the more potent here.

First: COc1cc2[nH]ncc2cc1Nc1ncnc2[nH]c(CCCO)cc12 [Example 23, 3-{4-[(6-Methoxy-1H-indazol-5-yl)amino]-7H-pyrrolo[2,3-d]pyrimidin-6-yl}propan-1-ol]
Second: COc1cc2[nH]ncc2cc1Nc1ncnc2[nH]c(Br)cc12 [Example 20, 6-Bromo-N-(6-methoxy-1H-indazol-5-yl)-7H-pyrrolo[2,3-d]pyrimidin-4-amine]
The pIC50 of the first is 0.32 log units lower: 7.57 for the first, 7.89 for the second. The second is the more potent here.

`Fc1cc2[nH]ncc2cc1Nc1ncnc2[nH]c(Br)cc12` [Example 55, 6-Bromo-N-(6-fluoro-1H-indazol-5-yl)-7H-pyrrolo[2,3-d]pyrimidin-4-amine] and `Cc1cc2[nH]ncc2cc1Nc1ncnc2[nH]cc(F)c12` [Example 11, 5-Fluoro-N-(6-methyl-1H-indazol-5-yl)-7H-pyrrolo[2,3-d]pyrimidin-4-amine] are within 0.2 log units of each other in pIC50: 7.01 for the first, 7.13 for the second.

Going from `COc1cc2[nH]ncc2cc1Nc1ncnc2[nH]c(C(=O)N(C)CCN(C)Cc3ccccc3)c(Br)c12` [Example 62, N-{2-[Benzyl(methyl)amino]ethyl}-5-bromo-4-[(6-methoxy-1H-indazol-5-yl)amino]-N-methyl-7H-pyrrolo[2,3-d]pyrimidine-6-carboxamide] to `COc1cc2[nH]ncc2cc1Nc1ncnc2[nH]c(C(=O)N3CCCCC3)c(Br)c12` [Example 60, {5-Bromo-4-[(6-methoxy-1H-indazol-5-yl)amino]-7H-pyrrolo[2,3-d]pyrimidin-6-yl}(piperidin-1-yl)methanone], the pIC50 rises from 8.40 to 8.70 (0.30 log units).

First: Cc1cc2[nH]ncc2cc1Nc1ncnc2[nH]cc(C(=O)NC(C)C)c12 [Example 14, 4-[(6-Methyl-1H-indazol-5-yl)amino]-N-(propan-2-yl)-7H-pyrrolo[2,3-d]pyrimidine-5-carboxamide]
Second: CC(C)NC(=O)c1c[nH]c2ncnc(Nc3cc4cn[nH]c4cc3F)c12 [Example 18, 4-[(6-Fluoro-1H-indazol-5-yl)amino]-N-(propan-2-yl)-7H-pyrrolo[2,3-d]pyrimidine-5-carboxamide]
The pIC50 of the first is 0.58 log units lower: 7.47 for the first, 8.05 for the second.

Going from `COc1cc2[nH]ncc2cc1Nc1ncnc2[nH]cc(C)c12` [Example 39, N-(6-Methoxy-1H-indazol-5-yl)-5-methyl-7H-pyrrolo[2,3-d]pyrimidin-4-amine] to `COc1cc2[nH]ncc2cc1Nc1ncnc2[nH]cc(C(F)(F)F)c12` [Example 49, N-(6-Methoxy-1H-indazol-5-yl)-5-(trifluoromethyl)-7H-pyrrolo[2,3-d]pyrimidin-4-amine], the pIC50 falls from 9.00 to 7.80 (1.20 log units). The first is the more potent here.

Compared with `CC(C)Oc1cc2[nH]ncc2cc1Nc1ncnc2[nH]cc(C#N)c12` [Example 34, 4-[(6-Isopropoxy-1H-indazol-5-yl)amino]-7H-pyrrolo[2,3-d]pyrimidine-5-carbonitrile], `CC(C)NC(=O)c1c[nH]c2ncnc(Nc3cc4cn[nH]c4cc3OC(C)C)c12` [Example 31, N-(Propan-2-yl)-4-{[6-(propan-2-yloxy)-1H-indazol-5-yl]amino}-7H-pyrrolo[2,3-d]pyrimidine-5-carboxamide] is 1.67 log units lower in pIC50: 8.70 for the first, 7.03 for the second.

`COc1cc2[nH]ncc2cc1Nc1ncnc2[nH]cc(C(=O)NC(C)C)c12` [Example 6, N-isopropyl-4-[(6-methoxy-1H-indazol-5-yl)amino]-7H-pyrrolo[2,3-d]pyrimidine-5-carboxamide] and `CC(C)Oc1cc2[nH]ncc2cc1Nc1ncnc2[nH]c(C#CCO)cc12` [Example 32, 3-(4-{[6-(Propan-2-yloxy)-1H-indazol-5-yl]amino}-7H-pyrrolo[2,3-d]pyrimidin-6-yl)prop-2-yn-1-ol] are within 0.2 log units of each other in pIC50: 7.80 for the first, 7.85 for the second.

In the case of `CC(C)Oc1cc2[nH]ncc2cc1Nc1ncnc2[nH]c(S(=O)(=O)c3ccccc3)cc12` [Example 52, 6-(Phenylsulfonyl)-N-[6-(propan-2-yloxy)-1H-indazol-5-yl]-7H-pyrrolo[2,3-d]pyrimidin-4-amine], the pIC50 was 8.70.
